# Test results as given in US20020197653A1, “System for detecting reporter gene expression” (priority 2001, published 2002).
# System: NOS gene under the control of the Gal10 promoter (iNOS)
# Assay: Small-molecule-induced expression of the NOS reporter gene in yeast, detected by bead-bound fluorescein-based NO sensor
# Assay type: cell-based
# Details: yeast culture in 96-well plates, galactose final concentration 100 mM, TENTAGEL sensor beads, fluorescent microscope with CCD camera
# Procedure: The lactone function of the sensor is effectively aminolysed at room temperature over 48 hours. The apparent loading achieved was about 10% (0.03 mmol/g), although it is possible that much lower loading was in fact achieved.
# We have also obtained a yeast strain developed by Mansuy et al (Sari et al. Biochemistry 35(22):7204-7213, June 1996; incorporated herein by reference) in which transcription of the NOS gene is under the control of the Gal10 promoter and is therefore inducible (and is referred to as iNOS). We grew the yeast cells in glucose media (SGI medium containing 7 g/L yeast nitrogen base without amino acids, 1 g/L casamino acids, 20 g/L glucose, and 50 mg/L tryptophan, at 30 ° C.) so that expression of the iNOS gene was repressed. The cells were harvested and washed with medium lacking any sugar (7 g/L yeast nitrogen base without amino acids, 1 g/L casamino acids and 50 mg/L tryptophan), were resuspended in the same sugar-free medium, and were distributed into 96-well plates.
# The TENTAGEL beads containing sensor were washed with CH2Cl2, THF, DMF, i-PrOH, MeOH, EtOH, and deionized water, and were dried. 10 μl of sensor beads in sugar-free medium were added to wells containing 170 μl of yeast culture (20-30 beads per well). […]
structure (smiles),measurement,value
O=C[C@H](O)[C@@H](O)[C@@H](O)[C@H](O)CO [galactose],color change of NO sensor beads exposed to induced cells (iNOS reporter expression),distinct color change (green ->yellow)
